{
  "source": "paper PMC11089247",
  "about": "(Frontiers in Pharmacology, 2024)",
  "origin": "cited, not measured here",
  "key": {"[1]": {"tested_on": "CYP2C19", "details": "substrate fluoxetine, ref Fang et al., 2017"}, "[2]": {"tested_on": "CYP2C9", "parameters": "method as in Ji et al., 2015", "details": "substrate fluoxetine, ref Ji et al., 2015"}},
  "note": "Counter-ions that a name gives are not always drawn.",
  "data": [
    {"smiles": "CNCCC(Oc1ccc(C(F)(F)F)cc1)c1ccccc1", "note": "(centres unmarked) [fluoxetine, Fluoxetine hydrochloride]", "values": [
      {"measurement": "Km", "setting": "[1]", "result": 97.6, "unit": "µM"},
      {"measurement": "Km", "setting": "[2]", "result": 31.7, "unit": "µM"}
    ]}
  ]
}
